# Measured values reported in PMC8368996, “Interactions between AMOT PPxY motifs and NEDD4L WW domains function in HIV-1 release” (The Journal of Biological Chemistry, 2021).
# Peptide text beside a SMILES is read from it. * marks the point of attachment. X1 = O=C1OC2(c3cc(F)c(O)cc3Oc3cc(O)c(F)cc32)c2ccc(N3C(=O)CC(*)C3=O)cc21
# Molecular target: T1, NEDD4L WW3 (Homo sapiens, UniProt Q96PU5)
# T1 construct: -WW3(497 -530); GST (N, cleaved yes); made in house; host or cells: E. coli Rosetta-pLysS
# Assay: Fluorescence polarization (FP) anisotropy binding of labeled AMOT PPxY peptides to recombinant NEDD4L WW3 domain
# Conditions: for fold reduction of NEDD4L WW3 binding affinity relative to the wt peptide: FP Kd ratio mutant / wt
# Protocol: Each dilution series was performed at least in triplicate. […] The mean Kd values are reported as mean ± SEM.
# T1 sequence (Q96PU5 497-530 limits assumed): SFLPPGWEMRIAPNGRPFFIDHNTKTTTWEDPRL
Structure (SMILES),fold reduction of NEDD4L WW3 binding affinity relative to the wt peptide [fold],fold tighter binding than any other pairwise AMOT PPxY-NEDD4L WW interaction (PPxY1-WW3 compared with the 11 other pairs of Fig. 3E)
CSCC[C@H](NC(=O)CNC(=O)[C@H](CCCCN)NC(=O)[C@H](Cc1ccccc1)NC(=O)[C@@H]1CCCN1C(=O)[C@H](Cc1ccc(O)cc1)NC(=O)[C@H](CCC(=O)O)NC(=O)[C@@H]1CCCN1C(=O)[C@H](CC(C)C)NC(=O)[C@@H]1CCCN1C(=O)CNC(=O)[C@H](CCCNC(=N)N)NC(=O)[C@H](Cc1c[nH]cn1)NC(=O)[C@H](CCC(=O)O)NC(=O)[C@H](CCSC)NC(=O)[C@@H](N)CSC1CC(=O)N(c2ccc3c(c2)C(=O)OC32c3cc(F)c(O)cc3Oc3cc(O)c(F)cc32)C1=O)C(N)=O (stereo partly shown) [(P/L)PPxY2] (H-C(X1)MEHRGPLPEYPFKGM-NH2; N-terminus and C-terminus assumed),2.8,
CSCC[C@H](NC(=O)[C@@H](N)CSC1CC(=O)N(c2ccc3c(c2)C(=O)OC32c3cc(F)c(O)cc3Oc3cc(O)c(F)cc32)C1=O)C(=O)N[C@@H](CCC(N)=O)C(=O)N[C@@H](CC(N)=O)C(=O)N[C@@H](CC(N)=O)C(=O)N[C@@H](CCC(=O)O)C(=O)N[C@@H](CCC(=O)O)C(=O)N[C@@H](CC(C)C)C(=O)N1CCC[C@H]1C(=O)N[C@H](C(=O)N[C@@H](Cc1ccc(O)cc1)C(=O)N[C@@H](CCC(=O)O)C(=O)N[C@@H](CCC(=O)O)C(=O)N[C@@H](CCCCN)C(=O)N[C@@H](CCCCN)C(=O)N[C@H](C(N)=O)C(C)C)[C@@H](C)O (stereo partly shown) [A112K] (H-C(X1)MQNNEELPTYEEKKV-NH2; N-terminus and C-terminus assumed),8,
CSCC[C@H](NC(=O)[C@@H](N)CSC1CC(=O)N(c2ccc3c(c2)C(=O)OC32c3cc(F)c(O)cc3Oc3cc(O)c(F)cc32)C1=O)C(=O)N[C@@H](CCC(N)=O)C(=O)N[C@@H](CC(N)=O)C(=O)N[C@@H](CC(N)=O)C(=O)N[C@@H](CCCCN)C(=O)N[C@@H](CCCCN)C(=O)N[C@@H](CC(C)C)C(=O)N1CCC[C@H]1C(=O)N[C@H](C(=O)N[C@@H](Cc1ccc(O)cc1)C(=O)N[C@@H](CCC(=O)O)C(=O)N[C@@H](CCC(=O)O)C(=O)N[C@@H](C)C(=O)N[C@@H](CCCCN)C(=O)N[C@H](C(N)=O)C(C)C)[C@@H](C)O (stereo partly shown) [E104K/E105K] (H-C(X1)MQNNKKLPTYEEAKV-NH2; N-terminus and C-terminus assumed),6,
CSCC[C@H](NC(=O)[C@@H](N)CSC1CC(=O)N(c2ccc3c(c2)C(=O)OC32c3cc(F)c(O)cc3Oc3cc(O)c(F)cc32)C1=O)C(=O)N[C@@H](CCC(N)=O)C(=O)N[C@@H](CC(N)=O)C(=O)N[C@@H](CC(N)=O)C(=O)N[C@@H](CCC(=O)O)C(=O)N[C@@H](CCC(=O)O)C(=O)N[C@@H](CC(C)C)C(=O)N1CCC[C@H]1C(=O)N[C@H](C(=O)N[C@@H](Cc1ccc(O)cc1)C(=O)N[C@@H](CCC(=O)O)C(=O)N[C@@H](CCC(=O)O)C(=O)N[C@@H](C)C(=O)N[C@@H](CCCCN)C(=O)N[C@H](C(N)=O)C(C)C)[C@@H](C)O (stereo partly shown) [PPxY1] (H-C(X1)MQNNEELPTYEEAKV-NH2; N-terminus and C-terminus assumed),,more than 5 fold
